Ten compounds from ChEMBL document CHEMBL3407446, “Effect of new hybrids based on 5,16-pregnadiene scaffold linked to an anti-inflammatory drug on the growth of a human astrocytoma cell line (U373)” (Eur J Med Chem, 2015) can be followed below.

SMILES strings stand for the structures. Activity calls are given as the source filed them. The calls are words filed in the database; no cut-off is given here.

The subject of assay [1] is U-373MG ATCC. The assay is described as follows: Antiproliferative activity against human U373MG cells assessed as effect on cell number at 1 nM to 10 uM incubated for 1 to 6 days by trypan blue dye exclusion dye based inverted microscopy. It counts as functional.
The subject of assay [2] is U-373MG ATCC. Put plainly: Antiproliferative activity against human U373MG cells assessed reduction in cell number at 10 uM incubated for 1 to 6 days by trypan blue dye exclusion dye based inverted microscopy. It counts as functional.
Assay [3] can be described thus: Antiproliferative activity against human U373MG cells assessed reduction in cell number at 10 uM incubated for 6 days by trypan blue dye exclusion dye based inverted microscopy. Type of assay: functional, U-373MG ATCC. Particulars: U373 MG, 144 h.
For assay [4], the system named is U-373MG ATCC. The assay is described as follows: Antiproliferative activity against human U373MG cells assessed reduction in cell number at 1 nM and 5 uM incubated for 1 to 6 days by trypan blue dye exclusion dye based inverted microscopy. Type of assay: functional.
In assay [5] the test system is U-373MG ATCC. The assay is described as follows: Antiproliferative activity against human U373MG cells assessed reduction in cell number at 1 nM and 10 nM incubated for 1 to 6 days by trypan blue dye exclusion dye based inverted microscopy. Type of assay: functional.
Assay [6] has as its system U-373MG ATCC. Put plainly: Induction of cell proliferation of human U373MG cells at 1 nM and 10 nM incubated for 1 to 6 days by trypan blue dye exclusion dye based inverted microscopy. It counts as functional.
The subject of assay [7] is U-373MG ATCC. Put plainly: Antiproliferative activity against human U373MG cells assessed reduction in cell number at 1 nM and 10 uM incubated for 1 to 6 days by trypan blue dye exclusion dye based inverted microscopy. It counts as functional.

As to `CC(C(=O)O)c1cccc(C(=O)c2ccccc2)c1` (stereo not drawn), the outcome in the assay with U-373MG ATCC [1] was inactive.

As to `CC(=O)C1=CC[C@H]2[C@@H]3CC(=O)C4=C[C@@H](OC(=O)[C@H](C)c5ccc(CC(C)C)cc5)CC[C@]4(C)[C@H]3CC[C@]12C`, the result in the assay on U-373MG ATCC [1] and in the assay on U-373MG ATCC [2] was Active.

`COc1ccc2cc([C@H](C)C(=O)O)ccc2c1`: the result with U-373MG ATCC [1] was inactive.

What is called IC50 is the midpoint of a concentration-inhibition curve. In assay [3], `CC(=O)C1=CC[C@H]2[C@@H]3CC(=O)C4=C[C@@H](O)CC[C@]4(C)[C@H]3CC[C@]12C` registered an IC50 of 3.02 µM. Besides, in the assay with U-373MG ATCC [4], the outcome was Active.

On to `CC1=C(CC(=O)O)c2cc(F)ccc2/C1=C\c1ccc([S+](C)[O-])cc1` (stereo not drawn), for which the outcome with U-373MG ATCC [1] and in the assay on U-373MG ATCC [5] was Active.

Regarding `COc1ccc2c(c1)c(CC(=O)O)c(C)n2C(=O)c1ccc(Cl)cc1`, in the assay on U-373MG ATCC [1], the outcome was inactive.

Compound `COc1ccc2c(c1)c(CC(=O)O[C@@H]1C=C3C(=O)C[C@@H]4[C@H](CC[C@]5(C)C(C(C)=O)=CC[C@@H]45)[C@@]3(C)CC1)c(C)n2C(=O)c1ccc(Cl)cc1` displayed an IC50 in assay [3] of 0.016 µM. Further, the result in the assay on U-373MG ATCC [1] and in the assay on U-373MG ATCC [2] was Active.

Consider `CC(C)Cc1ccc(C(C)C(=O)O)cc1` (stereo not drawn), for which, in the assay on U-373MG ATCC [1], the result was inactive.

Take `COc1ccc2cc([C@@H](C)C(=O)O[C@@H]3C=C4C(=O)C[C@@H]5[C@H](CC[C@]6(C)C(C(C)=O)=CC[C@@H]56)[C@@]4(C)CC3)ccc2c1`: in assay [3], the IC50 turned out to be 17.7 µM. Besides, the outcome in the assay on U-373MG ATCC [1], in the assay with U-373MG ATCC [6] and in the assay with U-373MG ATCC [7] was Active.

As to `CC(=O)C1=CC[C@H]2[C@@H]3CC(=O)C4=C[C@@H](OC(=O)[C@H](C)c5cccc(C(=O)c6ccccc6)c5)CC[C@]4(C)[C@H]3CC[C@]12C`, the outcome in the assay on U-373MG ATCC [1] was inactive.
